Measurements reported in US20030208035A1, “Antifungal and/or antibacterial peptides, preparation methods, compositions containing same and methods of treating mammals and/or plants” (priority 2000, published 2003).
Bridges are numbered along the chain shown (N, C = ends). Where no end group is shown, it is not given here.

Key:
Candida albicans = test: anti-Candida albicans growth inhibition test in liquid medium (96-well microplates); assay type: cell-based; details: fold relative to Ard1
Description: The anti-Candida albicans and anti-Aspergillus fumigatus activities of the different analogues were assessed using a growth inhibition test in liquid medium made in 96-well microplates. The activity of the purified peptides was tested for different dilutions of each peptide and was compared with those of heliomycin and Ard1 quantified under the same conditions.
The activity test was made directly on yeasts derived from a stock frozen at −80° C., in Sabouraud medium containing 15% glycerol. The density of the yeasts in the stock was adjusted to an optical density of 0.4 OD at 600 nm. After slow thawing at room temperature, the yeast suspension was reduced by dilution to an optic density of 1 mOD at 600 nm in Sabouraud medium, and 90 μl of this dilution were deposited in the wells of microtitration plates in the presence of 10 μl of sample to be tested. Control samples were systematically made in which 10 μl of sample were replaced by 10 μl of sterile water. Media sterility was controlled by incubating 10 μl sterile water in the presence of 90 μl of medium. The samples were incubated at 30° C. for 40 h under slight stirring and the antifungal activity was quantified by measuring optic density at 600 nm.

C. dubliensis = assay type: cell-based
Description: (§1) Candida yeasts (C. albicans, C. glabrata, C. dubliensis, C. tropicalis, C. kefyr, C. krusei and C. parapsilosis—donated by Dr. H. Koenig, Hôpital Civil, Strasbourg), fluconazole-resistant C. albicans (n^o245962, n^o2332, n^o246335 and n^o3552, donated by Drs. J.Meis and J. Mouton, University Hospital, Microbiology Department, Nijmegen, Netherlands), and Cryptoccocus neoformans (donated by Dr. H. Koenig, Hôpital Civil, Strasbourg) were seeded on Sabouraud-Cloramphenicol Agar slant gelose (Biomerieux) and left to incubate for 24 h at 30° C. (Candida sp.) and for 72 h at 37° C. (Cryptoccocus neoformans).
(§2) Some yeast colonies were placed in suspension in liquid Sabouraud medium (Biomerieux) to obtain a final concentration of 0.1 OD at 600 nm corresponding to 2.5.10^6 yeasts/ml.
(§3) The yeast suspension was adjusted to 5.10^3 yeast/ml in Sabouraud medium.
(§4) 100 μl of peptide dilutions (concentration of 50 with 0.097 μg/ml peptide) were deposited in microtitration plates. After adding […] of yeast suspension with 5.10^3 yeast/ml i.e. 500 yeasts, the test plates were incubated 24 h at 30° C. (Candida) under slow shaking or 72 h at 37° C. (Cryptoccocus).
(§5) Determination of minimal inhibiting concentrations (MIC) was made by measuring absorbency at 600 nm using a spectrophotometer-microtitration plate reader. The MIC score was set at a growth inhibition rate of 50%.

C. parapsilosis = assay type: cell-based
Description: as §1, §2, §3, §4, §5

A. flavus = assay type: cell-based
Description: (§6) The antifungal activity was detected by a growth inhibition test in a liquid medium.
(§7) The filamentous fungi (A. fumigatus, A. flavus and A. terreus, donated by Dr. H. Koenig, Hôpital Civil, Strasbourg; and S. prolificans and F. solani donated by Drs. J. Meis and J. Mouton, University hospital, Microbioolgy Department, Nijmegen, Netherlands) were seeded on Malt-Agar slant gelose (Biomerieux) and incubated 7 days at 37° C.
(§8) The spores were then collected with 10 ml YPG medium containing 0.05% Tween 20 and filtered through a gauze. The spores were centrifuged 10 min at 1700 rpm, the residue was collected in YPG (1 g Yeast extract, 1 g Peptone, 3 g Glucose per 1 l).
(§9) The suspension was counted with a Coverslide and adjusted to 10^4 spores/ml.
(§10) 100 μl of peptide dilutions (concentration of 50 with 0.097 μg/ml peptide) were deposited in microtitration plates. 100 μl with 10^4 spores/ml of filamentous fungi, i.e. 1000 spores, were then added.
(§11) The test plates were incubated 48 h at 37° C.
(§12) Determination of minimum inhibiting concentrations (MIC) was made by observing well cover rate. The MIC score was set at 50% well covering.

[1] = test system: Scedosporium inflatum (FSSP 7908 strain); test: Scedosporium inflatum infected model (invasive scedosporiosis), continuous infusion by osmotic pumps; assay type: in vivo, mice; details: for 50% mortality, post-infection day: controls day 7
Description: Swiss OF1 mice weighing 22 g were infected by intravenous route (i.v.) with a lethal dose of Scedosporium inflatum (FSSP 7908 strain cultured on Malt Agar gelose for 7 days at 37° C.). The infecting dose was 7.10^6 spores per mouse, injected in a volume of 100 μl via the lateral tail vein.
Peptides pEM35 and pEM51 were administered continuously using ALZET 1003D osmotic pumps (flow rate: 0.97 μl/h; volume: 93 μl; infusion time: 4 days) and 1007D pumps (flow rate: 0.47 μl/h; volume: 100 μl; infusion time: 8 and half days) with intraperitoneal insertion
Groups of 8 infected mice were treated either with:
c) with pEM51 delivered i.p. by 1007D pumps at a dose of 30 mg/kg for 8 days, corresponding to a theoretical equilibrium plasma concentration of 0.3 μg/ml;
d) with pEM51 delivered i.p. by 1003D pumps at a dose of 60 mg/kg for 4 days, corresponding to a theoretical equilibrium plasma concentration of 0.6 μg/ml;
e) with pEM35 delivered i.p. by 1003D pumps at a dose of 35 mg/kg for 4 days, corresponding to a theoretical equilibrium plasma concentration of 0.35 μg/ml.
In this model of invasive scedosporiosis, inoculation of a dose of 7.10^6 spores of Scedosporium inflatum was 50% lethal on post-infection day 7. The first death occurred at 5 days and 6 days respectively after infection for the control mice group (infected, non-treated) and the placebo group (infected and with Alzet pumps). 100% mortality was observed on day 11 in the control group and 75% mortality on day 20 for the placebo group. The state of health of the mice deteriorated rapidly on and after post-infection day 3 with a morbidity score for these two groups of 28/40 and 34/40 on day 3 and 6/40 and 7/40 on post-infection day 7. Signs of encephalitis occurred on post-infection day 4.

[2] = Acute toxicity study in mice; assay type: in vivo; details: for acute toxicity: mice, intravenous, in 0.9% NaCl, injections of 30 mg/kg repeated at 30-minute intervals, 3 times daily for 3 days
Description: […] The peptides were solubilised in a 0.9% NaCl solution; the injected volume was 150 μl injected in 45 seconds via the lateral tail vein.

A. fumigatus = assay type: cell-based; details: 48 h
Description: as §6, §7, §8, §9, §10, §11, §12

A. terreus = assay type: cell-based
Description: as §6, §7, §8, §9, §10, §11, §12

Sequence | Activity C.a. (relative activity in relation to Ard1) (Candida albicans) | MIC (C. dubliensis) | MIC (C. parapsilosis) | MIC (A. flavus) | acute toxicity [2] | delayed growth (weight) on the day after the injection ([2]; single i.v. dose 200 mg/kg) | delayed growth (weight) on the day after the injection ([2]; single i.v. dose 400 mg/kg) | MIC (A. fumigatus) | MIC (A. terreus) | further results
DKLIGSCVWGAVNYTSNCNAECKRRGYKGGHCGSFANVNCWCQT (disulfide 7-32, 18-40, 22-42 (inferred)) [pEM31] | 2 | 6.25 µg/mL | 1.56 µg/mL | >25 µg/mL |  |  |  |  |  | 
DKLIGSCVWGAVNYTSNCNAECKRRGYKGGHCGSFLNVNCWCET (disulfide 7-32, 18-40, 22-42 (inferred)) [pEM35] | 4 |  |  | 3.125 µg/mL | no acute toxicity was observed | approximately 1 g | approximately 1 g | 6.25 µg/mL | 6.25 µg/mL | delay of onset of the first death ([1]; 35 mg/kg for 4 days i.p. by 1003D pumps): 5 days; delay of 50% mortality relative to control and placebo groups ([1]; 35 mg/kg for 4 days i.p. pumps): 8 days; mice alive on day 20 (out of 8) ([1]; 35 mg/kg for 4 days i.p. pumps): 1 mouse; morbidity score post-infection day 5 ([1]; 35 mg/kg for 4 days i.p. pumps): 28/40; morbidity score post-infection day 15 ([1]; 35 mg/kg for 4 days i.p. pumps): 8/40; 50% mortality, post-infection day ([1]; 35 mg/kg for 4 days i.p. pumps): 15 days
DKLIGSCVWGAVNYTSNCNAECKRRGYKGGHCGSFLNVNCWCQT (disulfide 7-32, 18-40, 22-42 (inferred)) [pEM46] | 4-8 | 3.125 µg/mL | 0.78 µg/mL |  |  |  |  | 3.125 µg/mL | 6.25 µg/mL | 
DKLIGSCVWGAVNYTSNCRAECKRRGYKGGHCGSFANVNCWCET (disulfide 7-32, 18-40, 22-42 (inferred)) [pEM51] | 2-4 |  |  | 6.25 µg/mL | no acute toxicity was observed | approximately 1 g | approximately 2 g |  | 3.125 µg/mL | therapeutic efficacy in terms of survival ([1]; 30 mg/kg for 8 days): very good therapeutic efficacy; delay of onset of the first death ([1]; 30 mg/kg for 8 days i.p. by 1007D pumps, 7.10^6 spores i.v., 8 mice): 9 days; mice alive on day 20 (out of 8) ([1]; 30 mg/kg for 8 days i.p. pumps): 5 mice; morbidity score post-infection day 5 until day 14 ([1]; 30 mg/kg for 8 days i.p. pumps): 24/40; morbidity score post-infection day 20 ([1]; 30 mg/kg for 8 days i.p. pumps): 11/40; morbidity score post-infection day 4 ([1]; 30 mg/kg for 8 days i.p. pumps, 40 = all 8 mice healthy): 28/40; delay of onset of the first death ([1]; 60 mg/kg for 4 days i.p. by 1003D pumps): 4 days; delay of 50% mortality in relation to control and placebo groups ([1]; 60 mg/kg for 4 days i.p. pumps): 5 days; mice alive on day 20 (out of 8) ([1]; 60 mg/kg for 4 days i.p. pumps): 3 mice; morbidity score post-infection day 5 ([1]; 60 mg/kg for 4 days i.p. pumps): 30/40; morbidity score post-infection day 14 ([1]; 60 mg/kg for 4 days i.p. pumps): 6/40; 50% mortality, post-infection day ([1]; 60 mg/kg for 4 days i.p. pumps): 12 days; delayed growth (weight) on the day after the injection ([2]; single i.v. dose 300 mg/kg): approximately 1 g
